Assay results taken from patent US20160215267A1, “METHODS FOR GENERATING 3D CELL CULTURE MODEL IN HIGH RESPIRATION ENVIRONMENTS FOR HIGH-CONTENT ANALYSES AND SCREENING” (IKKO-ZU CORPORATION, priority 2015, published 2016).

Tested on: HepG2/C3A
Assay: Drug-induced liver injury (DILI) simulated by adjusting air supply from the well bottom, island-shaped 3Ds on PDMS
Format: cell-based, human
Details: 24 h exposure, highest concentration 20 mM
Protocol: Compounds were dissolved at 200 times the highest test concentration in 100% DMSO. […] The final DMSO concentration was set constant and less than 0.4% over the tested dilutions. […] Therefore, serially-diluted compounds were finally diluted in situ at 1/2 and mixed by a gentle rocking motion a few times. […]
Cells grown as island 3Ds in the gas-permeable PDMS membrane were exposed to drug treatments described above. […] The plates were equilibrated to 5% CO2 and 3TC and measured by Opera (PerkinElmer).
For detailed global image acquisition, a 20× objective was used in spinning-disc confocal mode. […] Then the cell area was estimated for selected nuclei in the regions, and TMRM emission intensity in the cell regions was calculated for the selected cells over the 4 designated fields per well. […] For the dose-response and Z′ values, the intensity values were analyzed on a projection image representing the peak intensity values for each of 4 Z-planes projected onto a single image. For the detailed analysis of the entire 3Ds, each Z-plane was individually analyzed.

CC(=O)Nc1ccc(O)cc1 [Acetaminophen, acetaminophen]
toxicity response (dose response curve) (3Ds on PDMS membrane left entirely bare): apparently unresponsive | toxicity response (dose response curve) (3Ds on PDMS membrane partially-sealed): suggesting a DILI effect
